For series [1], the target named is T1, OX1 (Homo sapiens, UniProt O43613).
T1 construct: expressed in transfected cells; host or cells: CHO (CHO-OX1, kept under selection antibiotic)
T1 sequence (O43613 1-425): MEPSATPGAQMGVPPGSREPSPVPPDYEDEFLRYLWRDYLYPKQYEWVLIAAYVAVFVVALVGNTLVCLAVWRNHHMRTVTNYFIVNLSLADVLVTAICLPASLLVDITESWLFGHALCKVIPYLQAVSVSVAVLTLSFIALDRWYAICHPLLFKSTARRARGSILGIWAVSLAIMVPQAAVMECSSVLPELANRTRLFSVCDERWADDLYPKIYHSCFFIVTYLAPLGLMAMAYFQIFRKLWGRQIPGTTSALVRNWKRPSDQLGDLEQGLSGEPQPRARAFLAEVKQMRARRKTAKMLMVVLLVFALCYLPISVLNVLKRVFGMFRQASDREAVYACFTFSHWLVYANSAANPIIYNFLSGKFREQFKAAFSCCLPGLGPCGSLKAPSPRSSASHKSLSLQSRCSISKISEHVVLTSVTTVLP
Put plainly: Orexin receptor cell-based functional assay, [Ca2+]i by FLIPR, CHO-OX1 cells. The conditions noted are these: CHO-OX1 cells, [Ca2+]i by FLIPR, antagonist dose-range 0.1 nM-10 μM, EC90 of OXA; read-out: OX1. The method, boiled down: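 CHO cells expressing human OX1 or OX2 loaded with calcium dye plus 2.5 mM probenecid at 37° C (calcium4, 30 min, or calcium6, 2 h), then exposed to compounds (0.1 nM-10 μM) for 30 min. Intracellular Ca2+ measured on FLIPR; antagonist format.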

For series [2], the target named is T2, CYP3A4 (Homo sapiens, UniProt P08684).
T2 construct: pre-incubated with human liver microsomes and NADPH; from tissue; host or cells: human liver microsomes
In words: Cytochrome P450 inhibition assay (midazolam hydroxylation). Type of series: in vitro ADME. The conditions noted are these: human, human liver microsomes, probe midazolam (hydroxylation to 1′-hydroxymidazolam), 10 μM test compound, midazolam at approximately its Km. In outline:
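Human liver microsomes; CYP3A4 activity as midazolam 1′-hydroxylation with substrate near Km, with or without 10 μM test compound, read as percent inhibition. For time-dependent inhibition, parallel samples were preincubated 30 min with NADPH before substrate, and percent inhibition compared with non-preincubated samples.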
(Liver microsomes are vesicles of endoplasmic reticulum, rich in cytochrome P450 enzymes.)

Experimental findings from patent publication US9440982B2 (Eolas Therapeutics, Inc., priority 2012, dated 2016) are described below.

Structures are written as SMILES. pIC50: −log10 of the molar value.

One may read the inhibition as how much of the control response was suppressed.

T2 sequence (P08684 whole entry): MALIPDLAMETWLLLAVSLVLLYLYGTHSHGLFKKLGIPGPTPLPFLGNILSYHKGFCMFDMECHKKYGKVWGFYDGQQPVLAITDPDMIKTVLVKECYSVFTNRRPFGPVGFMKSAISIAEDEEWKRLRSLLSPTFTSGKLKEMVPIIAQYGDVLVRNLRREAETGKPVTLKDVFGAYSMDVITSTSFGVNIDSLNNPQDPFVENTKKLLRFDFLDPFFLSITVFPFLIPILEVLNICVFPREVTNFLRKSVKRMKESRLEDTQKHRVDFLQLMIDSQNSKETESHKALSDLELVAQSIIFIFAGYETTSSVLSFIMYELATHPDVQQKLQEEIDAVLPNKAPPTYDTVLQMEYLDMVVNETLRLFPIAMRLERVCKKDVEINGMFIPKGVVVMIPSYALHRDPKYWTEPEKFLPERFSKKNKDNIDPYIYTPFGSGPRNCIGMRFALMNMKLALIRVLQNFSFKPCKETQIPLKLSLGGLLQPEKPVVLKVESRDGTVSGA

In the case of `Cc1ccc(-c2ncccn2)c(C(=O)N2CCC[C@@H](C)[C@H]2CNc2ncc(Cl)cc2F)c1` [Example A181, ((2S,3R)-2-(((5-Chloro-3-fluoropyridin-2-yl)amino)methyl)-3-methylpiperidin-1-yl)(5-methyl-2-(pyrimidin-2-yl)phenyl)methanone], the pIC50 in series [1] is 8.40. The same compound registered an inhibition at 10 µM in series [2] of 76%.
For `Cc1ccc(-c2ccccn2)c(C(=O)N2CCC[C@@H](C)[C@H]2CNc2ccc(C#N)cn2)c1` [Example A60, 6-((((2S,3R)-3-Methyl-1-(5-methyl-2-(pyridin-2-yl)benzoyl)piperidin-2-yl)methyl)amino)nicotinonitrile], in that order: 6.31 and 69%.
`C[C@@H]1CCCN(C(=O)c2cc(Cl)ccc2-c2ncccn2)[C@@H]1CNc1ncc(Cl)cn1` [Example A202, (5-Chloro-2-(pyrimidin-2-yl)phenyl)((2S,3R)-2-(((5-chloropyrimidin-2-yl)amino)methyl)-3-methylpiperidin-1-yl)methanone]: in series [1], the pIC50 was 7.74. The same compound registered an inhibition at 10 µM in series [2] of 44%.
Regarding `Cc1ccc(-c2ncccn2)c(C(=O)N2CCC[C@@H](C)[C@H]2CNc2nc3ccccc3o2)c1` [Example A204, ((2S,3R)-2-((Benzo[d]oxazol-2-ylamino)methyl)-3-methylpiperidin-1-yl)(5-methyl-2-(pyrimidin-2-yl)phenyl)methanone], the pIC50 in series [1] was 8.52. The compound further registered an inhibition at 10 µM in series [2] of 60%.
Regarding `Cc1ccc(-n2ccc(C)n2)c(C(=O)N2CCC[C@@H](C)[C@H]2CNc2ccc(C#N)cn2)c1` [Example A133, 6-((((2S,3R)-3-Methyl-1-(5-methyl-2-(3-methyl-1H-pyrazol-1-yl)benzoyl)piperidin-2-yl)methyl)amino)nicotinonitrile], in series [1], the pIC50 was 7.03. This compound also came in with an inhibition at 10 µM in series [2] of 89%.
For `Cc1ccc(-n2cccn2)c(C(=O)N2CCC[C@@H](C)[C@H]2CNc2ncc(C(F)(F)F)cn2)n1` [Example A166, ((2S,3R)-3-Methyl-2-(((5-(trifluoromethyl)pyrimidin-2-yl)amino)methyl)piperidin-1-yl)(6-methyl-3-(1H-pyrazol-1-yl)pyridin-2-yl)methanone], in that order: 8.10 and 44%.
Consider `C[C@@H]1CCCN(C(=O)c2cc(F)ccc2-n2nccn2)[C@@H]1CNc1ccc(Cl)cn1` [Example A209, ((2S,3R)-2-(((5-Chloropyridin-2-yl)amino)methyl)-3-methylpiperidin-1-yl)(5-fluoro-2-(2H-1,2,3-triazol-2-yl)phenyl)methanone], for which, in series [1], the pIC50 is 7.35. In addition, the inhibition at 10 µM in series [2] came to 69%.
`C[C@@H]1CCCN(C(=O)c2cccc(F)c2-n2nccn2)[C@@H]1CNc1ccc(Cl)cn1` [Example A254, ((2S,3R)-2-(((5-Chloropyridin-2-yl)amino)methyl)-3-methylpiperidin-1-yl)(3-fluoro-2-(2H-1,2,3-triazol-2-yl)phenyl)methanone]: the pIC50 in series [1] is 7.43. Further, the inhibition at 10 µM in series [2] was determined as 63%.
For `Cc1ccc(-n2nccn2)c(C(=O)N2CCC[C@@H](C)[C@H]2CNc2ccc(C(F)(F)F)nn2)n1` [Example A176, ((2S,3R)-3-Methyl-2-(((6-(trifluoromethyl)pyridazin-3-yl)amino)methyl)piperidin-1-yl)(6-methyl-3-(2H-1,2,3-triazol-2-yl)pyridin-2-yl)methanone], in that order: 8.22 and 37%.
On the same counts, the results for `Cc1ccc(-n2nccn2)c(C(=O)N2CCC[C@@H](C)[C@H]2CNc2ncc(C#N)cc2F)c1` [Example A148, 5-Fluoro-6-((((2S,3R)-3-methyl-1-(5-methyl-2-(2H-1,2,3-triazol-2-yl)benzoyl)piperidin-2-yl)methyl)amino)nicotinonitrile] are 7.08 and 81%.
